Laboratory results: patent US9855226B2 (Relmada Therapeutics, Inc., priority 2012, dated 2018)

Assays:
[1] = target: T1, N-methyl-D-aspartate (NMDA) receptor (Rattus norvegicus, UniProt P35439); conditions: cited from earlier work
T1 construct: N-methyl-D-aspartate (NMDA) receptor in rat forebrain and spinal cord

[2] = test system: patients with chronic pain
[3] = test system: patients with chronic pain; conditions: average of eight patients
[4] = test system: subjects with major depression; conditions: single dose, 8 subjects; cited from earlier work
[5] = test system: relatively refractory population with major depression; conditions: single dose; cited from earlier work
male Wistar rats = conditions: single dose; cited from earlier work
[6] = 8 patients that completed and 1 removed, 40 mg PO q12 hr
[7] = day 12 of d-methadone 40 mg every 12 hours

SMILES: CCC(=O)C(C[C@H](C)N(C)C)(c1ccccc1)c1ccccc1 [d-methadone]
- NMDA receptor antagonism [1]: NMDA antagonists
- Tolerability ([2]; 40 mg PO Q 12 hours for 12 days, patients with chronic pain and multiple co morbidities): well tolerated
- Back pain: # of patients [2, 6]: 1
- Headache (first line): # of patients [2, 6]: 1
- Headache (second line): # of patients [2, 6]: 1
- Somnolence (Neurology): # of patients [2, 6]: 2
- Tremor (Neurology): # of patients [2, 6]: 1
- Back pain: Attribution ([2]; CTCAE v3.0): 3
- Back pain: Grade (1-5) ([2]; CTCAE v3.0): 1
- Headache (first line): Attribution ([2]; CTCAE v3.0): 3
- Headache (first line): Grade (1-5) ([2]; CTCAE v3.0): 1
- Headache (second line): Attribution ([2]; CTCAE v3.0): 4
- Headache (second line): Grade (1-5) ([2]; CTCAE v3.0): 1
- Somnolence (Neurology): Attribution ([2]; CTCAE v3.0): 3
- Somnolence (Neurology): Grade (1-5) ([2]; CTCAE v3.0): 2
- Tremor (Neurology): Attribution ([2]; CTCAE v3.0): 3
- Tremor (Neurology): Grade (1-5) ([2]; CTCAE v3.0): 1
- Patients' perception of analgesia ([2]; very sick patients with severe cancer pain): recognized it as an effective analgesic
- Anxiety, Baseline, average score ([3]; baseline (day 1)): 2.5
- Drowsiness, Baseline, average score ([3]; baseline (day 1)): 4.1
- Pain, Baseline, average score ([3]; baseline (day 1)): 4.1
- Tiredness, Baseline, average score ([3]; baseline (day 1)): 5.9
- Anxiety, Day 12, average score [3, 7]: 1.5
- Drowsiness, Day 12, average score [3, 7]: 2.9
- Pain, Day 12, average score [3, 7]: 4.1
- Tiredness, Day 12, average score [3, 7]: 3.6

SMILES: CNC1(c2ccccc2Cl)CCCCC1=O (stereo not shown) [ketamine]
- Antidepressant effect [4]: rapid and short-lived antidepressant effect
- Duration of antidepressant response (relatively sustained) [5]: 1 week
- Time to antidepressant response (rapid) [5]: 110 min
- Duration of interference with the induction of behavioral despair (male Wistar rats): up to 10 days

SMILES: CCC(=O)C(C[C@@H](C)N(C)C)(c1ccccc1)c1ccccc1 [l-methadone, reference compound]
- NMDA receptor antagonism [1]: NMDA antagonists
